Measurements reported in patent US11779555B2, “Combination of immunotherapy with local chemotherapy for the treatment of malignancies” (THE JOHNS HOPKINS UNIVERSITY, priority 2015, dated 2023).

Columns and labels:
bone marrow cells = assay: Bone marrow cellularity and CD45+ leukocytes; type: in vivo, C57BL/6J mice
Description: (§1) Appropriate isotype controls were used.

effector memory T cells = assay: IFNγ production of memory T cells after re-challenge; type: in vivo, mice; conditions: twenty days after re-challenge, PMA/Ionomycin stimulation
Method: as §1
Re-challenge experiments: Tumor burden was assessed weekly with IVIS imaging. Mice were considered “cured” of their brain tumors following initial treatment if no evidence of tumor was present at consecutive IVIS imaging sessions, and mice were further considered long-term survivors if no tumor was detected 90 days post implantation. Long-term survivors from each experimental group were re-challenged 90 days post implantation with 300,000 GL-261 LUC cells injected intracranially in the contralateral hemisphere. Cells were prepared in […]. Naïve mice were implanted in parallel as controls, and mice were followed with weekly IVIS imaging.

[1] = tested on: GL-261 LUC cells in the contralateral hemisphere; assay: Tumor re-challenge of long-term survivors; type: in vivo, mice
Method: Re-challenge experiments: Tumor burden was assessed weekly with IVIS imaging. Mice were considered “cured” of their brain tumors following initial treatment if no evidence of tumor was present at consecutive IVIS imaging sessions, and mice were further considered long-term survivors if no tumor was detected 90 days post implantation. […] Cells were prepared in 14 of PBS. Naïve mice were implanted in parallel as controls, and mice were followed with weekly IVIS imaging.

[2] = tested on: intracranial GL-261 LUC gliomas; assay: Survival of mice with intracranial GL-261 gliomas; type: in vivo, C57BL/6J mice; conditions: Example 3; chemotherapy at day 14, post anti-PD1
Method: Tumor model: Female C57BL/6J mice (The Jackson Laboratory, Bar Harbor, Me.), 6 to 8 weeks old, were implanted (Day 0) with GL-261 LUC cells to establish intracranial gliomas, as previously described (Zeng et al., 2013). Briefly, mice were anesthetized with ketamine/xylazine (100 mg/kg ketamine, 10 mg/kg xylazine) and a small midline incision was made to expose the skull. A burr hole was then drilled directly over the striatum and 130,000 GL-261 LUC cells were implanted at a depth of 3 mm from the cortical surface. The tumor take rate was 100%. Day 7 post implantation, mice were imaged to assess the progress of tumor growth using an IVIS platform (In Vivo Imaging System, Caliper Life Sciences, Hopkinton, Mass.). Mice were then stratified into experimental treatment groups based on luminescence. Each treatment group had 5 to 15 mice in the survival experiments. […]
Surgical procedure: polymer implantation: Mice in the LC or EP treatment groups were anesthetized with ketamine/xylazine (100 mg/kg ketamine, 10 mg/kg xylazine). […] Mice were monitored for a period of 30 min after recovery for signs of neurological deficits. […]
Statistics: Survival was plotted using Kaplan-Meier curves, and curves were analyzed with the log-rank Mantel-Cox test using GraphPad Prism software (GraphPad Software, La Jolla, Calif.). […]

OT-I T cells = assay: In vivo proliferation of adoptively transferred OT-I T cells in the spleen; set-up: species or system mice; conditions: three days after the transfer
Method: For in vivo cell proliferation tracing, OT-I RAG−/− splenocytes were labeled with cell proliferation dye eFluor450 (eBioscience, San Diego, Calif.) in the following way: Lymphocytes were isolated from spleen cells, their viability was checked post-isolation, and viable lymphocytes were washed with HBSS without Ca^2+ or Mg^2+ once in preparation for the staining. A 10 μM solution of the cell proliferation dye was made in HBSS without Ca^2+ and Mg^2+. After washing the isolated cells, the cells were reconstituted by adding the 10 μM dye solution to a concentration of 5×10^6 cells/mL. While the solution was added to the cells, the tube was gently vortexed to ensure homogeneous uptake of the dye by all cells.
The cells were incubated for 8 min in the dark at room temperature. Cells were quenched with 20 mls of HBSS with 20% FBS and were then spun at 1400 rpm for 5 min at 4° C. Cells were washed with HBSS without FBS an additional two times and cells were checked for viability. Cells were resuspended with HBSS (w/o FBS) to a concentration of 10×10^6 cells/mL. The cells were passed through a […] cell strainer to ensure they were in a single cell suspension and 100 μL of the cell suspension was injected retro-orbitally in the recipient mice immediately.

[3] = tested on: tumor infiltrating lymphocytes; assay: Flow cytometric analysis of tumor infiltrating lymphocytes (TILs)
Description: (§2) Flow cytometric analysis of tumor infiltrating immune cells and peripheral lymphoid cell populations: At day 21 or day 30 post tumor implantation, mice were sacrificed using a lethal dose of ketamine/xylazine cocktail. The spleen, brain, cervical lymph nodes (LN), and bone marrow were harvested and passed through a 40-μm strainer. A 30%-37%-60% Percoll gradient (GE Healthcare, Buckinghamshire, UK) was used to isolate immune cell populations from brain tumors and the draining LNs. After centrifugation, the 37%-60% interface contained lymphocytes, monocytes, and microglia in the case of brain tumors, and lymphocytes and monocytes in the case of draining LNs.
(§3) Lymphocytes from all tissues were stimulated with PMA-Ionomycin and Golgi stop (eBioscience) for 4-6 hours in a 37° C. humidified incubator maintained at 5% CO2. […] For the memory T cells, lymphocytes were stained with CD62L PE (BD Biosciences) and CD44 BV421 (BD Biosciences). […] Appropriate isotype controls were used. For the adoptive transfer experiment, CD45.2 PE Clone: 104 (eBioscience) was used to stain the isolated lymphocytes.

[4] = tested on: adoptively transferred ova specific (CD45.2) T cells; assay: Adoptive transfer of OT-I lymphocytes in GL-261 ova tumor bearing mice; type: in vivo; conditions: four days after adoptive transfer, three days after initiation of chemotherapy
Description: Adoptive transfer experiments: For the adoptive transfer experiments, 5 week old female B6.SJL-Ptprca Pepcb/BoyJ mice expressing the congenic marker CD45.1 were used as the recipient mice. Inbred C57BL6/J (B6), B6.129S7-Rag1tm1Mom/J (RAG^−/−), B6.SJL-Ptprcb Pepcb/BoyJ (CD45.2) and C57BL/6-Tg(TcraTcrb)1100Mjb/J (OT-I) mice were purchased from The Jackson Laboratory. 6-8 weeks old female RAG−/− OT-I CD45.2 transgenic mice were used as the donor mice.
RAG−/− OT-I CD45.2 mice were lethally anesthetized and their spleens were harvested and passed through a 40-μM nylon mesh. Red blood cell lysis buffer was consecutively applied to remove red blood cells. Cells were counted, checked for their viability, and washed twice with PBS. Two million cells were transferred in 100 uL of PBS for every recipient mouse via retro-orbital injection.
Mice were implanted with 300,000 Gl-261-ova-luc cells at day 0 and RAG−/− OT-I CD45.2 lymphocytes were transferred at day 13: 1 day before starting treatment with chemotherapy. The experimental schedule of the GL-261-ova tumor experiments is explained in detail in FIG. 1.
as §1

[5] = tested on: lymphocytes of draining lymph nodes, spleen and blood; assay: Flow cytometric analysis of draining lymph nodes and peripheral lymphoid organs
Description: as §2, with “Flow cytometric analysis of tumor infiltrating immune cells and peripheral lymphoid cell populations: At day 21 or day 30 post tumor implantation, mice were sacrificed using a lethal dose of ketamine/xylazine cocktail.” left out
as §3

CD3+ blood lymphocytes = assay: Circulating CD3+ lymphocytes in peripheral blood (serial blood draws); type: in vivo, C57BL/6J mice; conditions: Day 30 post implantation, end of regimen, lasting at least 2 weeks
Method: Peripheral blood was collected by cardiac puncture before harvesting other tissues at day 21 and 30. A total of 600 μL was collected from each mouse in heparin-coated tubes (BD Biosciences, Franklin Lakes, N.J.). Blood was mixed with PBS in a 1:1 ratio and overlaid onto a Ficoll-Paque Plus (GE Healthcare) base in a 1:3 ratio. After centrifugation, peripheral lymphocytes were extracted from the resulting horizon and were washed twice with PBS. In addition to the blood draws performed on days 21 or 30 post implantation, blood draws were also performed on days 26 and 41 post implantation. On these days, blood was taken via tail vein sampling and 100 μL of blood was collected for every mouse. Red blood cells were lysed using RBC Lysis Buffer (eBioscience) and subsequently stained with CD3 FITC Clone: 17A2 (eBioscience). All flow cytometry experiments were performed on a LSRII (BD Biosciences) and analysis was performed using FlowJo software (TreeStar, Ashland, Oreg.).

## O=NN(CCCl)C(=O)NCCCl [i.p. BCNU, BCNU]
Bone marrow cells; Example 2
  myelotoxicity (BM cellularity and CD45 leukocytes vs control): late myelotoxicity
Bone marrow cells; Example 3
  CD45+ bone marrow cells (leukocytes) vs control, LC or LC+anti-PD1: decreased cell numbers
  bone marrow cellularity (live-dead staining): significant decrease in cellularity
Effector memory T cells
  IFNγ production of CD8+CD44[high]CD62L[low] cells from DLNs, spleen or peripheral blood: dysfunctional IFNγ production
[1]; experimental day 104
  size of the spleen at necropsy vs LC and anti-PD1 treated mice: significantly decreased
[1]; long term survivors
  tumor growth after re-challenge in the contralateral hemisphere: not able to inhibit tumor growth
[2]
  median survival: 45 days
OT-I T cells
  OT-I cells divided (dilution of cell proliferation dye): 29.9%
[3]; day 21
  percent of CD4+FoxP3+ regulatory cells (Tregs) in TILs: 55%
  percentage of recovered CD8+ TILs producing IFNγ: 35%
[3]; day 30 post implantation
  density of CD3+ TILs (number of cells normalized by tumor volume): 40 cells
[4]
  CD3+CD45.2+ cells within the tumor microenvironment: 4%
  CD3+CD45.2+ transferred cells in the DLNs: 3%
[5]; Example 3
  CD3+ cells and CD8+ IFN-γ+ cells in draining lymph nodes: lymphodepletion of both CD3+ cells and CD8+ IFN-γ+ cells
[5]; cured mice, 4 months from tumor implantation
  lymphocytes recovered from spleen, LN and blood vs untreated or LC treated mice: decreased number of recovered lymphocytes
CD3+ blood lymphocytes
  CD3+ lymphocytes in peripheral blood: severely lymphodepleted
